Results: patent US20240158446A1, “CYCLIC COMPOUND HAVING SELECTIVE INHIBITORY ACTION ON KRAS OVER HRAS AND NRAS” (CHUGAI SEIYAKU KABUSHIKI KAISHA, priority 2021, published 2024)
Where two headings read alike, the source gives them in different places.

What was measured:
[1] = target: GDP-bound KRAS wild-type protein (Homo sapiens, UniProt P01116); experiment: Binding to KRAS by surface plasmon resonance (SPR), Single Cycle Kinetics
[2] = target: GDP-bound NRAS wild-type protein (Homo sapiens, UniProt P01111); experiment: Binding to NRAS by surface plasmon resonance (SPR), Single Cycle Kinetics; details: for NRAS/KRAS (ratio of KD value for NRAS to KD value for KRAS): GDP-bound NRAS wild-type protein vs GDP-bound KRAS wild-type protein; for NRAS/KRAS (ratio of KD value with respect to GDP-bound NRAS wild-type protein to KD value with respect to KRAS): SPR KD ratio NRAS/KRAS, class symbols
[3] = target: GDP-bound HRAS wild-type protein (Homo sapiens, UniProt P01112); experiment: Binding to HRAS by surface plasmon resonance (SPR), Single Cycle Kinetics; details: for HRAS/KRAS (ratio of KD value for HRAS to KD value for KRAS): GDP-bound HRAS wild-type protein vs GDP-bound KRAS wild-type protein; for HRAS/KRAS (ratio of KD value with respect to GDP-bound HRAS wild-type protein to KD value with respect to KRAS): SPR KD ratio HRAS/KRAS, class symbols
[4] = system: human lung cancer strain NCI-H441;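 further: cell proliferation inhibition after four days measured by CellTiter-Glo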
[5] = SPR, Single Cycle Kinetics, GDP-bound KRAS wild-type protein, read-out: KRAS KD
[6] = SPR Single Cycle Kinetics, GDP-bound KRAS wild-type protein, 1:1 binding model, read-out: KRAS KD
[7] = SPR, Single Cycle Kinetics, 1:1 binding model, GDP-bound KRAS wild-type protein, read-out: KRAS KD

Chain of GDP-bound KRAS wild-type protein (P01116 whole entry): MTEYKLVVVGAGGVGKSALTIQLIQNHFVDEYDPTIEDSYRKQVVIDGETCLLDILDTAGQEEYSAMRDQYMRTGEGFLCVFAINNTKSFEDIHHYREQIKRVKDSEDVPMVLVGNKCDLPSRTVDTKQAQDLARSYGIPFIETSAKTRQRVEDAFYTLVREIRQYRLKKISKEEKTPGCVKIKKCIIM
Chain of GDP-bound HRAS wild-type protein (P01112 whole entry): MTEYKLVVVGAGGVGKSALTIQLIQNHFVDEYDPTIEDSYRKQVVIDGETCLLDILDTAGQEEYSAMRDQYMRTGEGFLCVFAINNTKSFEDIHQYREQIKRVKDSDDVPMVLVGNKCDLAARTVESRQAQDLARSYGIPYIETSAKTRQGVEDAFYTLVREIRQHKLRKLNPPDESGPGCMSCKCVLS
Chain of GDP-bound NRAS wild-type protein (P01111 whole entry): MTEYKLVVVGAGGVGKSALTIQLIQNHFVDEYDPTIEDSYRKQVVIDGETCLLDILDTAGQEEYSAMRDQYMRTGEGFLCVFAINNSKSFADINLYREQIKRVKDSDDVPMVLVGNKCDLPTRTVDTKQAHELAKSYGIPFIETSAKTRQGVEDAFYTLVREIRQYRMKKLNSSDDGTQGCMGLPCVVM

Compound: CCCO[C@@H]1C[C@H]2C(=O)NC3(CC(C)(C)C3)C(=O)N(C)[C@@H](C3CCCC3)C(=O)N(C)[C@H](C(=O)N3CCCC3)CC(=O)N(C)[C@H]3CCCCc4ccc(cc4)C[C@@H](C(=O)N(C)CC(=O)N[C@@H](CCc4ccc(C(F)(F)F)c(OC)c4)C(=O)N2C1)N1CC/C=C\C[C@@H](C1=O)N(C)C(=O)CN(C)C(=O)[C@H]([C@@H](C)CC)NC3=O [PP3094, (1S,7S,11R,13S,19S,22S,26S,29S,35S,37Z)-19-cyclopentyl-7-[2-[3-methoxy-4-(trifluoromethyl)phenyl]ethyl]-3,3′,3′,18,21,25,31,34-octamethyl-29-[(1S)-1-methylpropyl]-11-propoxy-22-(pyrrolidine-1-carbonyl)spiro[3,6,9,15,18,21,25,28,31,34,41-undecazapentacyclo[24.15.9.2^43,46.1^35,41.0^9,13]tripentaconta-37,43(52),44,46(51)-tetraene-16,1′-cyclobutane]-2,5,8,14,17,20,24,27,30,33,53-undecone]
- Kd ([1]; SPR, Single Cycle Kinetics, 1:1 binding model, read-out: KD value with respect to GDP-bound KRAS wild-type protein): 0.081 nM
- Kd [1, 5]: 0.081 nM
- NRAS/KRAS (ratio of KD value for NRAS to KD value for KRAS) ([2]; SPR): A (a compound having 10 or more and less than 20 is denoted as A)
- ratio of the KD value with respect to GDP-bound NRAS wild-type protein to the KD value with respect to KRAS ([2]; SPR, KD(NRAS)/KD(KRAS)): A (a compound having 10 or more and less than 20 is denoted as A)
- HRAS/KRAS (ratio of KD value for HRAS to KD value for KRAS) ([3]; SPR): B (a compound having 3 or more and less than 10 is denoted as B)
- ratio of the KD value with respect to GDP-bound HRAS wild-type protein to the KD value with respect to KRAS ([3]; SPR, KD(HRAS)/KD(KRAS)): B (a compound having 3 or more and less than 10 is denoted as B)
- IC50 ([4]; read-out: NCI-H441 cell proliferation inhibitory activity, 50% proliferation inhibitory concentration (IC50 value), NCI-H441, four days, CellTiter-Glo): 2.2 nM

Compound: CCC[C@H]1C(=O)N[C@@H]([C@@H](C)CC)C(=O)N(C2CC2)CC(=O)N(C)[C@H]2C/C=C\CCN(C2=O)[C@@H](Cc2ccc(C)cc2)C(=O)N(C)CC(=O)N[C@@H](CCc2ccc(Cl)c(Cl)c2)C(=O)N2C[C@H](OCC)C[C@H]2C(=O)NC2(CC(C)(C)C2)C(=O)N(C)[C@@H](CC(C)(C)C)C(=O)N(C)[C@H](C(=O)N(C)C)CC(=O)N1C [PP2726]
- Kd [1, 6]: 1.1 nM
- NRAS/KRAS (ratio of KD value with respect to GDP-bound NRAS wild-type protein to KD value with respect to KRAS) [2]: AA (a compound having 20 or more is denoted as AA)
- HRAS/KRAS (ratio of KD value with respect to GDP-bound HRAS wild-type protein to KD value with respect to KRAS) [3]: A (a compound having 10 or more and less than 20 is denoted as A)
- IC50 [4]: 51 nM

Compound: CCO[C@@H]1C[C@H]2C(=O)NC3(CCC3)C(=O)N(C)[C@@H](C3CCCC3)C(=O)N(C)[C@H](C(=O)N(C)C)CC(=O)N(C)[C@@H](CC3CC3)C(=O)N[C@@H]([C@@H](C)CC)C(=O)N(C)CC(=O)N(C)[C@H]3C/C=C\CCN(C3=O)[C@@H](Cc3ccc(C(F)(F)F)cc3)C(=O)N(C)CC(=O)N[C@@H](CCc3ccc(C(F)(F)F)c(OC)c3)C(=O)N2C1 [PP1247, (2S,8S,12R,14S,20S,23S,27S,30S,36S,38Z)-20-cyclopentyl-27-(cyclopropylmethyl)-12-ethoxy-8-[2-[3-methoxy-4-(trifluoromethyl)phenyl]ethyl]-N,N,4,19,22,26,32,35-octamethyl-30-[(1S)-1-methylpropyl]-3,6,9,15,18,21,25,28,31,34,42-undecaoxo-2-[[4-(trifluoromethyl)phenyl]methyl]spiro[1,4,7,10,16,19,22,26,29,32,35-undecazatricyclo[34.5.1.0^10,14]dotetracont-38-ene-17,1′-cyclobutane]-23-carboxamide]
- Kd [1, 7]: 0.046 nM
- NRAS/KRAS (ratio of KD value for NRAS to KD value for KRAS) ([2]; SPR, KD ratio class): A (a compound having 10 or more and less than 20 is denoted as A)
- HRAS/KRAS (ratio of KD value for HRAS to KD value for KRAS) ([3]; SPR, KD ratio class): A (a compound having 10 or more and less than 20 is denoted as A)
- IC50 [4]: 6.4 nM

Compound: CCCOC[C@H]1C(=O)N[C@@H]([C@@H](C)OCC)C(=O)N2CCC[C@H]2C(=O)N(C)[C@H]2C/C=C\CCN(C2=O)[C@@H](Cc2ccc(C)cc2)C(=O)N(C)CC(=O)N[C@@H](CCc2cc(F)c(C(F)(F)F)c(F)c2)C(=O)N2C[C@H](OCC)C[C@H]2C(=O)NC2(CC(C)(C)C2)C(=O)N(C)[C@@H](C2CCCC2)C(=O)N(C)[C@H](C(=O)N(C)CC)CC(=O)N1C [PP2432]
- Kd [1, 5]: 1.4 nM
- NRAS/KRAS (ratio of KD value for NRAS to KD value for KRAS) ([2]; SPR): A (a compound having 10 or more and less than 20 is denoted as A)
- HRAS/KRAS (ratio of KD value for HRAS to KD value for KRAS) ([3]; SPR): A (a compound having 10 or more and less than 20 is denoted as A)
- IC50 [4]: 138 nM

Compound: CCO[C@@H]1C[C@H]2C(=O)NC3(CCC3)C(=O)N(C)[C@@H](C3CCCC3)C(=O)N(C)[C@H](C(=O)N3CCOCC3)CC(=O)N(C)[C@@H](CC)C(=O)N[C@@H]([C@@H](C)CC)C(=O)N3CC[C@H]3C(=O)N(C)[C@H]3CC[C@@H](C)CN(C3=O)[C@@H](Cc3ccc(C(F)(F)F)cc3)C(=O)N(C)CC(=O)N[C@@H](CCc3ccc(C(F)(F)F)c(Cl)c3)C(=O)N2C1 [PP1375]
- Kd [1, 7]: 0.23 nM
- NRAS/KRAS (ratio of KD value for NRAS to KD value for KRAS) ([2]; SPR, KD ratio class): B (a compound having 3 or more and less than 10 is denoted as B)
- HRAS/KRAS (ratio of KD value for HRAS to KD value for KRAS) ([3]; SPR, KD ratio class): B (a compound having 3 or more and less than 10 is denoted as B)
- IC50 [4]: 11.5 nM

Compound: CCO[C@@H]1C[C@H]2C(=O)NC3(CCC3)C(=O)N(C)[C@@H](C3CCCC3)C(=O)N(C)[C@H](C(=O)N(C)C)CC(=O)N(C)[C@@H](Cc3ccc(Cl)c(Cl)c3)C(=O)N[C@@H]([C@@H](C)CC)C(=O)N(C)CC(=O)N(C)[C@H]3CCCCCN(C3=O)[C@@H](Cc3ccc(C(F)(F)F)cc3)C(=O)N(C)CC(=O)N[C@@H](CCc3cc(F)c(C(F)(F)F)c(F)c3)C(=O)N2C1 [PP1174]
- Kd [1, 5]: 1 nM
- NRAS/KRAS (ratio of KD value for NRAS to KD value for KRAS) ([2]; SPR): B (a compound having 3 or more and less than 10 is denoted as B)
- HRAS/KRAS (ratio of KD value for HRAS to KD value for KRAS) ([3]; SPR): B (a compound having 3 or more and less than 10 is denoted as B)
- IC50 [4]: 85.2 nM

Compound: CCC[C@H]1C(=O)N[C@@H]([C@@H](C)CC)C(=O)N(C2CC2)CC(=O)N(C)[C@H]2C/C=C\CCN(C2=O)[C@@H](Cc2ccc(C(F)F)cc2)C(=O)N(C)CC(=O)N[C@@H](CCc2cc(F)c(C(F)(F)F)c(F)c2)C(=O)N2C[C@H](OCC)C[C@H]2C(=O)NC2(CC(C)(C)C2)C(=O)N(C)[C@@H](C(CC)CC)C(=O)N(C)[C@H](C(=O)N(C)C)CC(=O)N1C [PP2527]
- Kd [1, 6]: 0.65 nM
- NRAS/KRAS (ratio of KD value with respect to GDP-bound NRAS wild-type protein to KD value with respect to KRAS) [2]: AA (a compound having 20 or more is denoted as AA)
- HRAS/KRAS (ratio of KD value with respect to GDP-bound HRAS wild-type protein to KD value with respect to KRAS) [3]: A (a compound having 10 or more and less than 20 is denoted as A)
- IC50 [4]: 31 nM

Compound: CCO[C@@H]1C[C@H]2C(=O)NC3(CCC3)C(=O)N(C)[C@@H](C3CCCC3)C(=O)N(C)[C@H](C(=O)N3CCOCC3)CC(=O)N(C)[C@@H](CC3CCC3)C(=O)N[C@@H]([C@@H](C)CC)C(=O)N(C)CC(=O)N(C)[C@H]3C/C=C\CCN(C3=O)[C@@H](Cc3ccc(C(F)(F)F)cc3)C(=O)N(C)CC(=O)N[C@@H](CCc3cc(F)c(C(F)(F)F)c(F)c3)C(=O)N2C1 [PP1422]
- Kd [1, 7]: 0.22 nM
- NRAS/KRAS (ratio of KD value for NRAS to KD value for KRAS) ([2]; SPR, KD ratio class): AA (a compound having 20 or more is denoted as AA)
- HRAS/KRAS (ratio of KD value for HRAS to KD value for KRAS) ([3]; SPR, KD ratio class): A (a compound having 10 or more and less than 20 is denoted as A)
- IC50 [4]: 14.1 nM

Compound: CC[C@H](C)[C@@H]1NC(=O)[C@H](CC)N(C)C(=O)C[C@@H](C(=O)N(C)C)N(C)C(=O)[C@H](C2CCCC2)N(C)C(=O)C2(CCC2)NC(=O)[C@@H]2CCCN2C(=O)[C@H](CCc2cc(F)c(C(F)(F)F)c(F)c2)NC(=O)CN(C)C(=O)[C@H](CC2CCC(F)(F)CC2)N2CC/C=C\C[C@@H](C2=O)N(C)C(=O)CN(C)C1=O [PP1461]
- Kd [1, 7]: 0.27 nM
- NRAS/KRAS (ratio of KD value for NRAS to KD value for KRAS) ([2]; SPR, KD ratio class): A (a compound having 10 or more and less than 20 is denoted as A)
- HRAS/KRAS (ratio of KD value for HRAS to KD value for KRAS) ([3]; SPR, KD ratio class): A (a compound having 10 or more and less than 20 is denoted as A)
- IC50 [4]: 121 nM

Compound: CCCOC[C@H]1C(=O)N[C@@H]([C@@H](C)CC)C(=O)N(C)CC(=O)N(C)[C@H]2C/C=C\CCN(C2=O)[C@@H](Cc2ccc(C(F)(F)F)cc2)C(=O)N(C)CC(=O)N[C@@H](CCc2cc(F)c(C(F)(F)F)c(F)c2)C(=O)N2C[C@H](OCC)C[C@H]2C(=O)NC2(CCC2)C(=O)N(C)[C@@H](C2CCCC2)C(=O)N(C)[C@H](C(=O)N(C)C)CC(=O)N1C [PP1395, (2S,8S,12R,14S,20S,23S,27S,30S,36S,38Z)-20-cyclopentyl-8-[2-[3,5-difluoro-4-(trifluoromethyl)phenyl]ethyl]-12-ethoxy-N,N,4,19,22,26,32,35-octamethyl-30-[(1S)-1-methylpropyl]-3,6,9,15,18,21,25,28,31,34,42-undecaoxo-27-(propoxymethyl)-2-[[4-(trifluoromethyl)phenyl]methyl]spiro[1,4,7,10,16,19,22,26,29,32,35-undecazatricyclo[34.5.1.0^10,14]dotetracont-38-ene-17,1′-cyclobutane]-23-carboxamide]
- Kd [1, 7]: 0.063 nM
- NRAS/KRAS (ratio of KD value for NRAS to KD value for KRAS) ([2]; SPR, KD ratio class): A (a compound having 10 or more and less than 20 is denoted as A)
- HRAS/KRAS (ratio of KD value for HRAS to KD value for KRAS) ([3]; SPR, KD ratio class): B (a compound having 3 or more and less than 10 is denoted as B)
- IC50 [4]: 3.8 nM
